Publication PMC4097363, “Trace amines inhibit insect odorant receptor function through antagonism of the co-receptor subunit” (F1000Research, 2014)
Like-named read-outs stand apart in the source and are kept apart here.

Key:
Agam\Orco + Agam\Or65 [1] = test: Odorant and Orco agonist concentration-response, two-electrode voltage clamp in Xenopus oocytes; type: cell-based
Protocol: (§1) Follicle cells were removed by treatment with collagenase B (Boehringer Mannheim) for 2 hours at room temperature. Capped cRNA encoding each OR subunit was generated using mMessage mMachine kits (Ambion). For heteromeric ORs, 25 ng of cRNA encoding each OR subunit was injected into Stage V-VI Xenopus oocytes. For expression of Orco homomers, 50 ng of cRNA was injected. Oocytes were incubated at 18°C in Barth's saline (in mM: 88 NaCl, 1 KCl, 2.4 NaHCO 3, 0.3 CaNO 3, 0.41 CaCl 2, 0.82 MgSO 4, 15 HEPES, pH 7.6, and 150µg/ml ceftazidime) for 2–5 days prior to electrophysiological recording.
(§2) Odorant and Orco ligand induced currents were recorded under two-electrode voltage clamp, using an automated parallel electrophysiology system (OpusExpress 6000A, Molecular Devices). Oocytes were perfused with ND96 (in mM: 96 NaCl, 2 KCl, 1 CaCl 2, 1 MgCl 2, 5 HEPES, pH 7.5). Orco ligands were prepared as 50 or 100 mM stock solutions in DMSO and then diluted into ND96 on the day of the experiment. Odorants were prepared as 100 mM stock solutions in DMSO and then diluted into ND96. Unless otherwise noted, applications were for 60 sec at a flow rate of 1.0 ml/min, with extensive washing in ND96 at 4.6 ml/min between applications. Micropipettes were filled with 3 M KCl and had resistances of 0.2–2.0 MΩ. The holding potential was -70 mV. Current responses, filtered (4-pole, Bessel, low pass) at 20 Hz (-3 db) and sampled at 100 Hz, were captured and stored using OpusXpress 1.1 software (Molecular Devices).
(§3) To screen for agonist activity, oocytes were exposed to 30 sec applications of candidate compounds with 5 min washes between applications ( Figure 2A). For the concentration-response protocol ( Table 1), applications were for 20 sec at a flow rate of 1.65 ml/min. To measure antagonist activity at Orco ( Figure 2B, 2C, Figure 3, Figure 4A and Figure 5A), oocytes were exposed to two 60 sec applications of the synthetic Orco agonist OLC12 (2-((4-Ethyl-5-(4-pyridinyl)-4H-1,2,4-triazol-3-yl)sulfanyl)-N-(4-isopropylphenyl)acetamide) with 4 min washes between applications. Oocytes were then exposed to a 90 sec application of antagonist candidate, immediately followed by a 60 sec co-application of antagonist candidate and OLC12. The current response in the presence of antagonist candidate was compared to the mean of the preceding two responses to OLC12 alone and is presented as a percentage.
(§4) Initial analysis of electrophysiological data was done using Clampfit 9.1 software (Molecular Devices). Curve fitting and statistical analyses were done using Prism 5 (Graphpad). Concentration-inhibition data were fit to the equation: I = I max/(1+ (X/IC 50) ^n) where I represents the current response at a given concentration of inhibitor, X; I max is the maximal response in the absence of inhibitor; IC 50 is the concentration of inhibitor present that still allows a half maximal response from odorant; n is the apparent Hill coefficient. Concentration-response data were fit to the equation: I = I max/(1+(EC 50/X) ^n) where I represents the current response at a given concentration of odorant, X; I max is the maximal response; EC 50 is the concentration of agonist yielding a half maximal response; n is the apparent Hill coefficient. Statistical significance (p<0.05) was assessed using a two-tailed unpaired t test, an F test, or a one-way analysis of variance followed by the Dunnett's post-test, as appropriate.

Agam\Orco + Agam\Or31 = test: Odorant concentration-response, two-electrode voltage clamp in Xenopus oocytes; type: cell-based, Anopheles gambiae
Protocol: as §1, §2
To screen for agonist activity, oocytes were exposed to 30 sec applications of candidate compounds with 5 min washes between applications ( Figure 2A). For the concentration-response protocol ( Table 1), applications were for 20 sec at a flow rate of 1.65 ml/min. […]
Initial analysis of electrophysiological data was done using Clampfit 9.1 software (Molecular Devices). […] Statistical significance (p<0.05) was assessed using a two-tailed unpaired t test, an F test, or a one-way analysis of variance followed by the Dunnett's post-test, as appropriate.

Cqui\Orco [2] = molecular target: T1, Cqui\Orco (Culex quinquefasciatus, UniProt Q309I4); test: Antagonism of OLC12 activation of Orco in Xenopus oocytes; type: cell-based; conditions: for inhibition at 100 µM: read-out: inhibition of the OLC12 response
T1 sequence (Q309I4 entry or part of it): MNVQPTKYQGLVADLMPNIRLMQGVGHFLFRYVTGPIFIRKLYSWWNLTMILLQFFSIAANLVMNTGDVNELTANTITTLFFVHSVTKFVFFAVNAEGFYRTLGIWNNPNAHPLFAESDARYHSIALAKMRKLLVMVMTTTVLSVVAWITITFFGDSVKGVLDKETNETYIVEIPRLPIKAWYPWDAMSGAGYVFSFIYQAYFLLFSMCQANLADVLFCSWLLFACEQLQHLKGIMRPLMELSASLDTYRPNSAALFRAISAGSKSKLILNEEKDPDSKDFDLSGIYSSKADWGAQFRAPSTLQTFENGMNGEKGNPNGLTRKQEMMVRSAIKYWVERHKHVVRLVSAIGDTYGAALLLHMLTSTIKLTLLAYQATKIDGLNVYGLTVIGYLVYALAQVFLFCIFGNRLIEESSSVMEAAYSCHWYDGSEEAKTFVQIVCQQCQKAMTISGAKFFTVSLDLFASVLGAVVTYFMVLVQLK
Protocol: as §1, §2, §3, §4

Agam\Orco + Agam\Or65 [3] = molecular target: T2, Agam\Orco + Agam\Or65 (Anopheles gambiae, UniProt Q7QCC7); test: Odorant and Orco agonist concentration-response, two-electrode voltage clamp in Xenopus oocytes; type: cell-based
T2 sequence (Q7QCC7 1-478): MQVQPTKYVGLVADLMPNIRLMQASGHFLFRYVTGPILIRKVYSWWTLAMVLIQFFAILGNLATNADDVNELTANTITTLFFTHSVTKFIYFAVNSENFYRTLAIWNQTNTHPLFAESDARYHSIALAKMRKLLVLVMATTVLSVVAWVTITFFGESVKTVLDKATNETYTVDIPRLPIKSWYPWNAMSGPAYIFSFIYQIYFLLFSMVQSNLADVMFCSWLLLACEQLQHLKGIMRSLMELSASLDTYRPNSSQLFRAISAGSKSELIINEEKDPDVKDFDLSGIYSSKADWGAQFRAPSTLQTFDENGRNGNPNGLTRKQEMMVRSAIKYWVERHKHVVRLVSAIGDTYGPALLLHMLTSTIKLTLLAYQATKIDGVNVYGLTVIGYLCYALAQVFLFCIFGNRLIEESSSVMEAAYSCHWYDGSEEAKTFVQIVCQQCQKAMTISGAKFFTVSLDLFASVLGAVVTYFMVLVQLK
Protocol: as §1, §2, §3, §4

Onub\Orco + Onub\Or6 = Onub\Orco + Onub\Or6 (Ostrinia nubilalis, UniProt D3J5H5); test: Agonist concentration-response, two-electrode voltage clamp in Xenopus oocytes; type: cell-based
Sequence of Onub\Orco + Onub\Or6 (D3J5H9 entry or part of it): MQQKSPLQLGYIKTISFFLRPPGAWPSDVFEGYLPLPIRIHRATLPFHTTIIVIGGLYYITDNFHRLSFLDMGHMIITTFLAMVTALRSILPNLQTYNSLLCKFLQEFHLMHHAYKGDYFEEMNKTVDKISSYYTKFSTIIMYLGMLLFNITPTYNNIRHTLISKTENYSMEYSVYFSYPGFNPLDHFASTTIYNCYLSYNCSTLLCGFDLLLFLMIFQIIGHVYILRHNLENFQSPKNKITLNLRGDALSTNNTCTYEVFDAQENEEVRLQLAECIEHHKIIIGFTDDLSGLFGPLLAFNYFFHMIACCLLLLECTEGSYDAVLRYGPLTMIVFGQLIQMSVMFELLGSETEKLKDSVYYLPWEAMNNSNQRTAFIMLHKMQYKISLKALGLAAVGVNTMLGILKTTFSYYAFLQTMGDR
Sequence of Onub\Orco + Onub\Or6 (D3J5H5 entry or part of it): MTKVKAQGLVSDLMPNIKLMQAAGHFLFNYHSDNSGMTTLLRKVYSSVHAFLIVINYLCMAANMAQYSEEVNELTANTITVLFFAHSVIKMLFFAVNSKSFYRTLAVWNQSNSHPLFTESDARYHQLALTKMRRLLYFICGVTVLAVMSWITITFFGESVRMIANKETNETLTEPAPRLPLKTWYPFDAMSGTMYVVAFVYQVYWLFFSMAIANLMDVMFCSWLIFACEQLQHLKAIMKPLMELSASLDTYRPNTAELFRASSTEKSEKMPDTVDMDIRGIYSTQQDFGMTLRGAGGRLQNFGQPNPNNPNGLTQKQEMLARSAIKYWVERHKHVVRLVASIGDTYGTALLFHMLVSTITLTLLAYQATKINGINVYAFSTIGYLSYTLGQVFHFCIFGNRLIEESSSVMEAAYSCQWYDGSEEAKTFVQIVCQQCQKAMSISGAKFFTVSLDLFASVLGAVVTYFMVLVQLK
Protocol: as §1, §2, §3, §4

Dmel\Orco = molecular target: T3, Dmel\Orco (Drosophila melanogaster, UniProt Q9VNB5); test: as above; type: cell-based
T3 sequence (Q9VNB5 1-486): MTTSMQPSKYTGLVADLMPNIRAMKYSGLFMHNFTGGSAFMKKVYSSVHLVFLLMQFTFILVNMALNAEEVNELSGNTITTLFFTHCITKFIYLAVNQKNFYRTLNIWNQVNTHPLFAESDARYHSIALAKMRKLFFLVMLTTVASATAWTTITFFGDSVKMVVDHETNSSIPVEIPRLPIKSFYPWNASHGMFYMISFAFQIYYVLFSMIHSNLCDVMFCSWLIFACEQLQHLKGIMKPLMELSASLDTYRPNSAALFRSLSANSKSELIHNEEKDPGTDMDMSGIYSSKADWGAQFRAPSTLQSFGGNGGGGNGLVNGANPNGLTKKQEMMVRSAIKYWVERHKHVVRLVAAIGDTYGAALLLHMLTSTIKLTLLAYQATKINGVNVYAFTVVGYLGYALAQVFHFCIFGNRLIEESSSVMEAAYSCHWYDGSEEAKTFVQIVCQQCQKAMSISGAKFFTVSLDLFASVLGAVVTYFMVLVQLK
Protocol: as §1, §2, §3, §4

Cqui\Orco [4] = molecular target: T1, Cqui\Orco; test: as above; type: cell-based
Protocol: as §1, §2, §3, §4

Dmel\Orco + Dmel\Or35a = molecular target: T4, Dmel\Orco + Dmel\Or35a (Drosophila melanogaster, UniProt Q9VNB5); test: as above; type: cell-based
T4 sequence (Q9VNB5 1-486): T3 sequence (Q9VNB5 1-486)
T4 sequence (Q9V3Q2 1-409 partner): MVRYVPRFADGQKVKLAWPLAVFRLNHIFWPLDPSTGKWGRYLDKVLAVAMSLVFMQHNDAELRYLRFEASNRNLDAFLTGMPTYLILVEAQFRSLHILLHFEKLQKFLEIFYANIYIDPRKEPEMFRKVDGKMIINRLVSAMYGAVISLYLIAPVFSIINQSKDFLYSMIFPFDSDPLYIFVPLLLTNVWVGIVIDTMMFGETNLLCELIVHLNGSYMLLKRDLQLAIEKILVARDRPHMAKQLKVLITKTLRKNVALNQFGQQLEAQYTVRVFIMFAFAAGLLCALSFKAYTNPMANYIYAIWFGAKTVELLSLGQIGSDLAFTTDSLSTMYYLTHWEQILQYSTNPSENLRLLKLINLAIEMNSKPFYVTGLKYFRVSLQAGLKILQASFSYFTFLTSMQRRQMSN
Protocol: as §1, §2, §3, §4

Agam\Orco = molecular target: T5, Agam\Orco (Anopheles gambiae, UniProt Q7QCC7); test: as above; type: cell-based
T5 sequence (Q7QCC7 1-478): T2 sequence (Q7QCC7 1-478)
Protocol: as §1, §2, §3, §4

[5] = normalizing conc. 30µM geranyl acetate
[6] = Cqui\Orco activated by 30µM OLC12 (~EC5), 100µM of each amine, mean ± SEM, n = 3-10

Compound: C=CCc1ccc(O)c(OC)c1 [Eugenol, eugenol]
- Fit Max (Agam\Orco + Agam\Or65 [1]; normalized to 1µM eugenol): 1.0 ± 0.03
- EC50 (Agam\Orco + Agam\Or65 [1]; normalizing conc. 1µM eugenol): 0.08 ± 0.01 µM
- n H (apparent Hill coefficient) (Agam\Orco + Agam\Or65 [1]; normalizing conc. 1µM eugenol): 0.9 ± 0.1

Compound: CC(=O)OC/C=C(\C)CCC=C(C)C [Geranyl Acetate, geranyl acetate]
- Fit Max (Agam\Orco + Agam\Or31; normalized to 30µM geranyl acetate): 2.9 ± 0.3
- EC50 (Agam\Orco + Agam\Or31; [5]): 65 ± 23 µM
- n H (apparent Hill coefficient) (Agam\Orco + Agam\Or31; [5]): 1.0 ± 0.3

Compound: NCCc1c[nH]cn1 [Histamine, histamine]
- inhibition at 100 µM (Cqui\Orco [2]): 16 ± 8%

Compound: CCn1c(SCC(=O)Nc2ccc(C(C)C)cc2)nnc1-c1ccncc1 [OLC12, 2-((4-Ethyl-5-(4-pyridinyl)-4H-1,2,4-triazol-3-yl)sulfanyl)-N-(4-isopropylphenyl)acetamide]
- Fit Max (Agam\Orco + Agam\Or65 [3]; normalized to 30µM OLC12): 5.7 ± 0.3
- EC50 (Agam\Orco + Agam\Or65 [3]; normalizing conc. 30µM OLC12): 67 ± 6 µM
- n H (apparent Hill coefficient) (Agam\Orco + Agam\Or65 [3]; normalizing conc. 30µM OLC12): 2.0 ± 0.3
- EC50 (Onub\Orco + Onub\Or6): 100 ± 4 µM
- Fit Max (Onub\Orco + Onub\Or6; Onub\Orco + Onub\Or6, normalized to 100µM OLC12): 2.0 ± 0.1
- n H (apparent Hill coefficient) (Onub\Orco + Onub\Or6; Onub\Orco + Onub\Or6, normalizing conc. 100µM OLC12): 2.1 ± 0.2
- Fit Max (Dmel\Orco; normalized to 10µM OLC12): 36 ± 4
- EC50 (Dmel\Orco; normalizing conc. 10µM OLC12): 36 ± 4 µM
- n H (apparent Hill coefficient) (Dmel\Orco; normalizing conc. 10µM OLC12): 3.9 ± 1.9
- Fit Max (Cqui\Orco [4]; normalized to 30µM OLC12): 48 ± 2
- EC50 (Cqui\Orco [4]; normalizing conc. 30µM OLC12): 95 ± 6 µM
- n H (apparent Hill coefficient) (Cqui\Orco [4]; normalizing conc. 30µM OLC12): 2.5 ± 0.3
- Fit Max (Dmel\Orco + Dmel\Or35a; normalized to 10µM OLC12): 4.7 ± 0.4
- EC50 (Dmel\Orco + Dmel\Or35a; normalizing conc. 10µM OLC12): 20 ± 5 µM
- n H (apparent Hill coefficient) (Dmel\Orco + Dmel\Or35a; normalizing conc. 10µM OLC12): 1.9 ± 0.8
- Fit Max (Agam\Orco; normalized to 30µM OLC12): 47 ± 2
- n H (apparent Hill coefficient) (Agam\Orco; normalizing conc. 30µM OLC12): 2.4 ± 0.3
- EC50 (Agam\Orco; normalizing conc. 30µM OLC12, mean ± SEM): 124 ± 9 µM

Compound: NCC(O)c1ccc(O)cc1 (centres unmarked) [Octopamine, octopamine]
- inhibition of the OLC12 response (Cqui\Orco [2]; [6]): inactive

Compound: NCCc1ccc(O)c(O)c1 [dopamine]
- inhibition of the OLC12 response (Cqui\Orco [2]): inactive

Compound: CNC[C@H](O)c1ccc(O)c(O)c1 [epinephrine]
- inhibition at 100 µM (Cqui\Orco [2]): 9 ± 3%

Compound: CN(C)Cc1c[nH]c2ccccc12 [gramine]
- inhibition at 100 µM (Cqui\Orco [2]; [6]): 30 ± 4%

Compound: COc1ccc2[nH]cc(CCNC(C)=O)c2c1 [melatonin]
- inhibition at 100 µM (Cqui\Orco [2]; [6]): 13 ± 1%

Compound: NC[C@H](O)c1ccc(O)c(O)c1 [norepinephrine]
- inhibition of the OLC12 response (Cqui\Orco [2]; [6]): inactive

Compound: NCCc1ccccc1 [phenethylamine]
- IC50 (Cqui\Orco [2]): 117 ± 12 µM
- less potent than tryptamine (IC50 ratio) (Cqui\Orco [2]; Cqui\Orco activated by 30µM OLC12): 25 fold
- inhibition at 100 µM (Cqui\Orco [2]; [6]): 41 ± 1%

Compound: NCCc1c[nH]c2ccc(O)cc12 [serotonin]
- inhibition at 100 µM (Cqui\Orco [2]; [6]): 23 ± 3%
